The values below come from patent US6387945B2, “Lipoic acid analogs” (The Regents of the University of California, priority 2000, dated 2002).

The test system of one series is HT4 neuronal cells. The series is described as follows: Cells' ability to retain the reduced forms (DTNB efflux assay), HT4 neuronal cells. It counts as cell-based, mouse. Conditions: 0.1 mM LA or LA-PLUS, FIG. 6B. The method, then:
(§1) Jurkat T cells or neuronal HT4 cells were incubated with LA (0.1 mM) or LA-PLUS (0.1 mM). The medium of the cells was replaced by phosphate buffer saline that contained 250 uM of 5,5′-dithiobis-(2-nitrobenzoic acid) (DTNB). The free thiols in the medium were trapped by the DTNB and absorption was measured at 420 nm at different time intervals.
(§2) The efflux of DHLA and DHLA-PLUS from cells was measured in the medium of cells in culture. The medium was composed of PBS and DTNB. […] An illustration of how LA-PLUS crosses biological barriers such as membranes (also showing retention of DHLA-PLUS inside the cell) is given in FIG. 7.

The next series relates to Jurkat T cells. Nature of the series: Cells' ability to retain the reduced forms (DTNB efflux assay), Jurkat T cells. It counts as cell-based. Conditions: 0.1 mM LA or LA-PLUS, FIG. 6A. On the procedure: as §1, §2
Series [1] relates to HT4 cells. Nature of the series: Cell viability by LDH leakage after glutamate treatment. It counts as cell-based, mouse. Conditions: 10 mM glutamate, FIG. 2. The method, then: (§3) HT-4 cells (mouse hippocampal cell line) were purchased from American Type Culture Collection (ATCC, Bethesda, Md.). All experiments reported here were carried out with 10 mM glutamate.
(§4) HT4 cells were grown in DMEM supplemented with 10% serum and 100 U/ml penicillin-streptomycin at 37° C. in a humidified atmosphere containing 95% air/5% CO2.
(§5) All experiments were performed under the following protocol. Cells were allowed to grow to confluency, were trypsinized and subcultured in culture dishes at a concentration of 375,000 cells per millititer. The cells were continually cultured at 37° C. and were allowed to grow for 24 h, and then were exposed to glutamate treatment.
Cell viability was assayed using lactate dehydrogenase (LDH) leakage. After completion of the experiments, culture medium was removed from plates and centrifuged (500 g×5 min). The cells that detached from the monolayer following glutamate treatment were separated by centrifugation of the growth medium. […] LDH activity was measured from the samples spectophotometrically within two days of storage. Cell viability was determined using the following formula: viability=attached cell LDH activity/total LDH activity (medium+detached cell LDH activity+attached cell LDH activity).

Another series relates to L6 myoblasts. The series is described as follows: Glucose uptake by L6 rat muscle derived cells. It counts as cell-based. Conditions: 1 h pretreatment; FIG. 4. The method, then:
L6 cells were obtained from American Type Culture Collection (MD). Dulbecco's Phosphate Buffered Saline (DPBS) and Dulbecco's Modified Eagle Medium (DMEM) supplemented with high glucose, L-glutamine, pyridoxine hydrochloride and 110 mg/l sodium pyruvate were obtained from GIBCO BRL (Life Technologies NY). Fetal calf serum (FCS) and other reagents for the culture medium were obtained from the cell culture facility of the University of California-San Francisco. Undifferentiated mononucleated cells (myoblasts) were used in this study. For experiments, cells were seeded at a concentration of 0.2×10^6 cells per well in 6-well flat bottom tissue culture treated polystyrene plates (FALCON, Becton Dickinson Labware, NJ). Cultures were grown in DMEM supplemented with 10% FCS, 5 mM glutamine, 0.3% D-glucose, 50 U/ml of penicillin, and […] of streptomycin, in humidified air containing 5% CO2 at 37° C. Cell viability was greater than 97% as estimated by trypan blue exclusion or propidium iodide staining. The cells were split once every third day. All experiments were carried out on cells (6th to 12th passage) in the third day of the last passage. Cells seeded in 6-well plates were washed thrice with 1 ml transport suffer (140 mM NaCl, 5 mM KCl, 2.5 mM MgCl2, 1 mM CaCl2 in 20 mN tris-HEPES, pH 7.4) at room temperature. […] Radioactivity in each sample was read using a scintillation counter.

Another series has as its system ICAM-1. Nature of the series: PMA-induced ICAM-1 expression in ECV endothelial cells (flow cytometry). Conditions: same concentration; 20 nM PMA, 24 h; FIG. 3. It counts as cell-based, human. On the procedure: EV304 (ECV), a spontaneously transformed immortal human endothelial cell line established from the vein of an apparently normal human umbilical cord, were obtained from ATCC (Bethesda, Md.). ECV cells were grown in medium 199 supplemented with 10% fetal calf serum, 100 U/ml penicillin and 100 μg/ml streptomycin. Cells were maintained in a standard culture incubator with humidified air containing 5% CO2 at 37° C. ECV monolayers were pretreated with LA or LA-PLUS for the time period indicated in the respective figure legend. Following the pretreatment, cells were activated using 20 nM PMA for 24 h. […] Appropriate isotypic controls were used for background fluorescence in the ICAM-1 assay. The fluorescence and light scattering properties (forward scatter, FS; side scatter, SS) of the cells were determined by using an EPICS-Elite (Coulter, Miami, Fla.) flow cytometer. Cells with FITC-conjugated antibodies were excited using a 488 nm argon ion laser and emission of FTIC was recorded at 525 nm. […] A logarithmic scale was used to measure both background and endothelial cell fluorescence. Background fluorescence was then subtracted from endothelial cell fluorescence, allowing linear comparisons of ICAM-1 expression between various samples.

Series [2] concerns HT4 cells. The series is described as follows: Flow cytometric assay of fragmented DNA (glutamate-induced apoptosis). Conditions: 10 mM glutamate, 24 h, FIG. 1. It counts as cell-based, mouse. The method, then: as §3, §4, §5
HT4 cells were exposed to 10 mM glutamate for 24 h with and without antioxidants. […] The permeablized cells were kept in the dark for 6 h at 4° C. and their DNA integrity was analyzed using a flow cytometer (XL, Coulter, FL) with argon-ion laser (excitation 488 nm) and the 575 nm emission was recorded in fluorescence channel 1 (FL1). […]
The pathway of cell death was explored by staining the cells for 6 h following the glutamate treatment with a DNA-binding fluorescent dye, propidum iodide (PI) in cells permeabilised with a low concentration of detergent (Triton X-100 0.1% w/v). […] The cells were analyzed by flow cytometry.

Take `O=C(O)CCCC[C@@H](S)CCS` (racemic) [DHLA, dihydrolipoate]: the “efflux of reduced form from cells / retention inside cells” value in the series on HT4 neuronal cells and in the series with Jurkat T cells was “effluxed from the cell faster than DHLA-PLUS” throughout.
For `O=C(O)CCCCC1CCSS1` (centres unmarked) [LA, 1,2-dithiolane-3-pentanoic acid, reference compound], the “protection of HT4 cells against glutamate cytotoxicity (viability)” value in the series on HT4 cells [1] (100 μM compound) is reported as “did not provide total protection”.
With `CN(C)CCNC(=O)CCCCC1CCSS1.Cl` (centres unmarked) [LA-PLUS, N,N-Dimethyl-N-2-Amidoethyl Lipoate (HCl)], the “efficiency in protecting HT4 cells compared to lipoic acid” value in the series on HT4 cells [1] was “more efficient in protecting the HT4 cells than lipoic acid”. In addition, in the series with L6 myoblasts, the “enhancement of glucose uptake compared to LA” value was “clearly more effective than LA”. Further, the “down-regulation of PMA induced ICAM-1 expression compared to LA” value in the series with ICAM-1 is “much more effectively down-regulated”. The “glutamate-induced apoptotic process (cell shrinkage, DNA fragmentation)” value with HT4 cells [2] (50 μM compound) was “completely blocked”. Also, the “anti-apoptotic effect compared to LA” value with HT4 cells [2] is recorded as “much more pronounced compared to the effect of LA”.
